Test results from ChEMBL document CHEMBL1759931, “Potent and selective adenosine A(2A) receptor antagonists: [1,2,4]-triazolo[4,3-c]pyrimidin-3-ones” (Bioorg Med Chem Lett, 2011).

Key:
Adenosine receptor A2a = Adenosine receptor A2a (Homo sapiens, UniProt P29274); assay: Antagonist activity against human adenosine A2A receptor; assay type: functional
Homo sapiens = species: Homo sapiens; assay: Ratio of Ki for human adenosine A1 receptor to Ki for human adenosine A2A receptor
[1] = Solubility of the compound at pH 7.4; assay type: physicochemical; details: buffer
Rattus norvegicus [2] = assay: Inhibition of haloperidol -induced catalepsy in rat at 10 mg/kg, po measured after 1 hr; assay type: functional
Rattus norvegicus [3] = assay: Inhibition of haloperidol -induced catalepsy in rat at 10 mg/kg, po measured after 4 hrs; assay type: functional
Rattus norvegicus [4] = assay: Intrinsic clearance in rat at 3 mg/kg; assay type: ADME, organism-based; parameters: dose 3 mg/kg; details: in vivo
[5] = Drug uptake in rat brain at 3 mg/kg measured after 6 hrs; assay type: ADME, organism-based; parameters: dose 3 mg/kg; details: read-out: Drug uptake
[6] = AUC in rat at 3 mg/kg by LC-MS analysis; assay type: ADME, organism-based; parameters: dose 3 mg/kg; details: plasma

Adenosine receptor A2a, sequence (P29274 whole entry): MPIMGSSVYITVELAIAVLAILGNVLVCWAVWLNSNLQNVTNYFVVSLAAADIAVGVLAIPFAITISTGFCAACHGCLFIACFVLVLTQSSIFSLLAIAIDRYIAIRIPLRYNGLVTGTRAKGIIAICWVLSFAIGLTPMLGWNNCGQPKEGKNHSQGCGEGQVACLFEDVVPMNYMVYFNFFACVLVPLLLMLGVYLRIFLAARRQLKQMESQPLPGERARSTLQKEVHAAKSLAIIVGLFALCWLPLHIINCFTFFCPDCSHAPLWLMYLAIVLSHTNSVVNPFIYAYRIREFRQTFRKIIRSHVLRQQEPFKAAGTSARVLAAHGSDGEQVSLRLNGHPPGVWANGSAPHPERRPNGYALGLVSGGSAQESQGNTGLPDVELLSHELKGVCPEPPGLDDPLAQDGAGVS

Row | Compound | Ki (Adenosine receptor A2a) [nM] | Ratio Ki (Homo sapiens) | solubility ([1]; read-out: solubility) [µM] | also measured
1 | Nc1nc(-c2cccc(CO)c2)cc2nn(Cc3ccccc3)c(=O)n12 | 1700 | 1 | 100 | 
2 | Nc1nc(-c2ccccc2)cc2nn(Cc3ccccc3)c(=O)n12 | 1 | 26 |  | 
3 | Nc1nc(-c2ccccc2)cc2nc(-c3ccco3)nn12 | 7 | 3 |  | 
4 | Nc1nc2c(cnn2CCN2CCC3(CC2)OCCO3)c2nn(Cc3ccccc3)c(=O)n12 | 8.7 | 162 | 75 | 
5 | CS(=O)(=O)N1CCN(CCn2ncc3c2nc(N)n2c(=O)n(Cc4cccc(Cl)c4)nc32)CC1 | 10.5 | 133 | 12 | 
6 | COCCOc1ccc(N2CCN(CCn3ncc4c3nc(N)n3nc(-c5ccco5)nc43)CC2)cc1 [PRELADENANT] |  |  |  | inhibition in vivo at 10 mg/kg (Rattus norvegicus [2]): 75%; inhibition in vivo at 10 mg/kg (Rattus norvegicus [3]): 80%; solubility [1]: < 0.01 µg/mL
7 | Nc1nc2c(cnn2CCN2CCC(N3CCOCC3)CC2)c2nn(Cc3ccccc3)c(=O)n12 | 28.4 | 53 |  | 
8 | C=Cn1ncc2c1nc(N)n1c(=O)n(Cc3cccc(Cl)c3)nc21 | 0.4 | 356 | 12 | inhibition in vivo at 10 mg/kg (Rattus norvegicus [2]): 13%; inhibition in vivo at 10 mg/kg (Rattus norvegicus [3]): 15%; CL (Rattus norvegicus [4]): 27.7 mL/min/kg
9 | Nc1nc2c(cnn2CCN2CCOCC2)c2nn(Cc3cccc(Cl)c3)c(=O)n12 | 14.2 | 99 | 25 | 
10 | Nc1nc(-c2cccnc2)cc2nn(Cc3ccccc3)c(=O)n12 | 791 | 2 | 100 | 
11 | Nc1nc2c(cnn2CCN2CCOCC2)c2nn(CC3CC3)c(=O)n12 | 381 | 4 | > 250 | 
12 | Nc1nc2c(cnn2CCN2CCC(N3CCOCC3)CC2)c2nn(Cc3cccc(Cl)c3)c(=O)n12 | 6.7 | 224 |  | 
13 | Nc1nc2c(c3nn(Cc4ccccc4)c(=O)n13)CCc1ccccc1-2 | 0.5 | 43 |  | inhibition in vivo at 10 mg/kg (Rattus norvegicus [2]): 0%; inhibition in vivo at 10 mg/kg (Rattus norvegicus [3]): 18%; concentration at 6 h [5]: 10 ng/g; CL (Rattus norvegicus [4]): 14.7 mL/min/kg
14 | COCCOc1ccc(N2CCN(CCn3ncc4c3nc(N)n3c(=O)n(Cc5cccc(Cl)c5)nc43)CC2)c(F)c1 | 15.6 | 90 | 12 | 
15 | C=Cn1ncc2c1nc(N)n1c(=O)n(CC3CC3)nc21 | 27.4 | 55 | 175 | 
16 | CC(C)(C)OC(=O)N1CCN(CCn2ncc3c2nc(N)n2c(=O)n(Cc4ccccc4)nc32)CC1 | > 1300 |  | 100 | 
17 | COCCOc1ccc(N2CCN(CCn3ncc4c3nc(N)n3c(=O)n(Cc5ccccc5)nc43)CC2)c(F)c1 | > 1300 |  | 12 | 
18 | COc1ccc(-c2cc3nn(Cc4ccccc4)c(=O)n3c(N)n2)cc1 | 636 | 2 | 25 | 
19 | Nc1nc2c(cnn2CCN2CCC3(CC2)OCCO3)c2nn(Cc3cccc(Cl)c3)c(=O)n12 | 11 | 127 |  | 
20 | CN(C)CCn1ncc2c1nc(N)n1c(=O)n(Cc3cccc(Cl)c3)nc21 | 5.2 | 269 | 18 | inhibition in vivo at 10 mg/kg (Rattus norvegicus [2]): 13%; inhibition in vivo at 10 mg/kg (Rattus norvegicus [3]): 20%; AUC [6]: 0.398 µM·h; concentration at 6 h [5]: 39 ng/g; CL (Rattus norvegicus [4]): 37.3 mL/min/kg
21 | CN(C)CCn1ncc2c1nc(N)n1c(=O)n(CC3CC3)nc21 | > 1500 |  | > 250 | 
22 | CS(=O)(=O)N1CCN(CCn2ncc3c2nc(N)n2c(=O)n(Cc4ccccc4)nc32)CC1 | 8.9 | 157 | 75 | 
23 | Nc1nc2c(cnn2CCN2CCN(c3ccc(F)cc3F)CC2)c2nn(Cc3cccc(Cl)c3)c(=O)n12 | 23.4 | 60 |  | 
24 | Nc1nc2c(cnn2CCN2CCN(c3cnccn3)CC2)c2nn(Cc3ccccc3)c(=O)n12 | 12.7 | 110 | 50 | 
25 | Nc1nc2c(cnn2CCN2CCOCC2)c2nn(Cc3ccccc3)c(=O)n12 | 9 | 156 | 175 | 
26 | CC(C)(C)OC(=O)N1CCN(CCn2ncc3c2nc(N)n2c(=O)n(Cc4cccc(Cl)c4)nc32)CC1 | 556 | 2 | 25 | 
27 | Nc1nc2c(cnn2CCN2CCN(c3cnccn3)CC2)c2nn(Cc3cccc(Cl)c3)c(=O)n12 | 12.9 | 109 | 25 | 
28 | Nc1nc2c(cnn2CCN2CCN(c3ccc(F)cc3F)CC2)c2nn(Cc3ccccc3)c(=O)n12 | > 1300 |  |  | 
29 | C=Cn1ncc2c1nc(N)n1c(=O)n(Cc3ccccc3)nc21 | 0.3 | 1120 | 37 | inhibition in vivo at 10 mg/kg (Rattus norvegicus [2]): 0%; inhibition in vivo at 10 mg/kg (Rattus norvegicus [3]): 8%; AUC [6]: 0.248 µM·h; concentration at 6 h [5]: 10 ng/g; CL (Rattus norvegicus [4]): 24.4 mL/min/kg
30 | CN(C)CCn1ncc2c1nc(N)n1c(=O)n(Cc3ccccc3)nc21 | > 1500 |  | > 250 | 
